Results as given in US10781217B2, “Imidazopyridazine compound” (HANMI PHARMACEUTICAL CO., LTD., priority 2017, dated 2020).

Test system: SK-CO-1 cell line
Assay: Cell growth inhibition on SK-CO-1 cell line (SRB assay)
Format: cell-based
Settings: cultured with compound for 3 days, SRB colorimetric test
Description: SK-CO-1 cell line purchased from the American Type Culture Collection (ATCC, USA) was cultured at […] with an EMEM medium (10% FBS, 1% penicillin/streptomycin) under the presence of 5% CO2. The cultured SK-CO-1 cell line was prepared in 5×10^4/100 μl, placed in a 96 well-plate, and cultured for one day. After that, the test compound was stepwise diluted in a ratio of 1/10 from 10 μM to 0.1 nM in the same EMEM medium, and then cultured for 3 days. In order to measure viability of the cell, a sulforhodamine B colorimetric (SRB, sigma Cat. S1402) test method was used. After discarding the medium, 0.1 ml of 10% trichloroacetic acid (TCA, Sigma Cat. T0699) was introduced to each well, and the cell line was fixed for 30 minutes to 1 hour, then washed with distilled water, and exposed in the air to dry the plate. After that, 100 μl of 0.4% SRB solution was introduced to each well, and the cell line was stained for 30 minutes at room temperature, and the plate was washed with distilled water and 1% acetic acid, and then dried in the air. 150 μl of […] trizma base solution was introduced to each well, and after dissolving the solid SRB therein, absorbance was measured at 540 nm using a microplate-reader. The growth inhibition value (GI50) of the cell line was calculated using a GraphPad Prism software.

Substance: 1-(2-(((1^5Z,5Z)-2^5-fluoro-3-aza-1(3,6)-imidazo[1,2-b]pyridazina-2(4,2)pyrimidina-4(1,3)-benzenacyclohexapan-5-en-4^5-yl)oxy)ethyl)piperidin-4-ol [Example 1]
- GI50: 21 nM
